Molecular target: T1, G12D-mutant human KRAS (amino acid residues 1-188) (Homo sapiens, UniProt P01116, G12D)
T1 construct: G12D or G12C-mutant human KRAS (amino acid residues 1-188) with FLAG tag; made in house; host or cells: E. coli
Assay: KRAS Binding Disruption Assay (AlphaScreen; biotinylated KRpep-2d analogue or RAF1-RBD), G12D
Settings: KRAS G12D; geometric mean; read-out: KRAS GMean IC50 (uM) MUTATION: G12D
Procedure: Compound binding disrupts the interaction of KRpep-2d or RAF1-RBD with KRAS, leading to a decrease in Alpha signal.
All assay components were prepared in 20 mM HEPES (pH 7.5), 100 mM NaCl, 5 mM MgCl2, 0.01% Tween-20, and 0.01% BSA. Biotinylated analogues of KRpep-2d were custom synthesized. The binding disruption assays were performed using 5-20 nM of mutant KRAS and 5-20 nM of either biotinylated KRpep-2d analogue or RAF1-RBD. 19 μL of KRAS protein and 4 μL of biotinylated KRpep-2d or RAF1-RBD were added to the wells of a 384-well plate containing 1 μL of various concentrations of test compound or DMSO vehicle. 16 wells containing KRAS, biotinylated KRpep-2d or RAF1-RBD, and 5% DMSO served as high controls. 16 wells containing KRAS only and 5% DMSO served as low controls. Binding reactions were incubated for 1 hour at 25° C., then Anti-Flag Acceptor and Streptavidin Donor Alpha beads were added at a final concentration of 10 μg/mL for an additional hour at room temperature. Alpha signal was read out on a Perkin Elmer Envision HTS instrument. The percentage inhibition at individual compound concentrations relative to high and low controls was calculated. The data were analyzed by using nonlinear regression to generate IC50 values.

T1 sequence (P01116 1-188 isoform P01116-2 G12D): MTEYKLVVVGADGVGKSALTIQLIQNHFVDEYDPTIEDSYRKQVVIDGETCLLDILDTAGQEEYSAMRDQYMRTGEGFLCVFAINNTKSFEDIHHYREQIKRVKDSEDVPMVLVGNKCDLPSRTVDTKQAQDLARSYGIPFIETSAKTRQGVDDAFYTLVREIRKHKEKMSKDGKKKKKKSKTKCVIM

Row | IC50 [µM] | Structure (SMILES)
1 | 0.0001 to 10 | O=C(CO)C1(O)CN(c2nc(N3C[C@H]4CC[C@@H](C3)N4)c3ccc(-c4cc(O)cc5ccccc45)c(F)c3n2)C1 [P-0507, 1-(1-(4-((1R,5S)-3,8-diazabicyclo[3.2.1]octan-3-yl)-8-fluoro-7-(3-hydroxynaphthalen-1-yl)quinazolin-2-yl)-3-hydroxyazetidin-3-yl)-2-hydroxyethan-1-one]
2 | 0.0001 to 10 | Oc1cc(-c2ccc3c(N4C[C@H]5CC[C@@H](C4)N5)nc(N4CCC5(CNC5)C4)nc3c2F)c2ccccc2c1 [P-0508, 4-(4-((1R,5S)-3,8-diazabicyclo[3.2.1]octan-3-yl)-8-fluoro-2-(2,6-diazaspiro[3.4]octan-6-yl)quinazolin-7-yl)naphthalen-2-ol]
3 | 0.0001 to 10 | Oc1cc(-c2ccc3c(N4C[C@H]5CC[C@@H](C4)N5)nc(N4CC5CCNCC5C4)nc3c2F)c2ccccc2c1 (stereo partly drawn) [P-0509, 4-(4-((1R,5S)-3,8-diazabicyclo[3.2.1]octan-3-yl)-8-fluoro-2-(octahydro-2H-pyrrolo[3,4-c]pyridin-2-yl)quinazolin-7-yl)naphthalen-2-ol]
4 | 0.0001 to 10 | C#Cc1cccc2[nH]cc(-c3ccc4c(N5C[C@H]6CC[C@@H](C5)N6)nc(OCC56CCCN5CCC6)nc4c3F)c12 [P-0513, 4-((1R,5S)-3,8-diazabicyclo[3.2.1]octan-3-yl)-7-(4-ethynyl-1H-indol-3-yl)-8-fluoro-2-((tetrahydro-1H-pyrrolizin-7a(5H)-yl)methoxy)quinazoline]
5 | 0.0001 to 10 | CC(=O)c1c(F)ccc2[nH]cc(-c3ccc4c(N5C[C@H]6CC[C@@H](C5)N6)nc(OCC56CCCN5CCC6)nc4c3F)c12 [P-0514]
6 | 0.0001 to 10 | C#Cc1c(F)ccc2[nH]cc(-c3ccc4c(N5C[C@H]6CC[C@@H](C5)N6)nc(OCC56CCCN5CCC6)nc4c3F)c12 [P-0515]
7 | 0.0001 to 10 | CC(CO)(COc1nc(N2C[C@H]3CC[C@@H](C2)N3)c2ccc(-c3cc(O)cc4ccccc34)c(F)c2n1)c1ccccc1 (stereo partly drawn) [P-0516, 4-(4-((1R,5S)-3,8-diazabicyclo[3.2.1]octan-3-yl)-8-fluoro-2-(3-hydroxy-2-methyl-2-phenylpropoxy)quinazolin-7-yl)naphthalen-2-ol]
8 | 0.0001 to 10 | O=C(O)CCc1cccc2[nH]cc(-c3ccc4c(N5C[C@H]6CC[C@@H](C5)N6)nc(OCC56CCCN5CCC6)nc4c3F)c12 [P-0518, 3-(3-(4-((1R,5S)-3,8-diazabicyclo[3.2.1]octan-3-yl)-8-fluoro-2-((tetrahydro-1H-pyrrolizin-7a(5H)-yl)methoxy)quinazolin-7-yl)-1H-indol-4-yl)propanoic acid]
9 | 0.0001 to 10 | N#CCCc1cccc2[nH]cc(-c3ccc4c(N5C[C@H]6CC[C@@H](C5)N6)nc(OCC56CCCN5CCC6)nc4c3F)c12 [P-0519, 3-(3-(4-((1R,5S)-3,8-diazabicyclo[3.2.1]octan-3-yl)-8-fluoro-2-((tetrahydro-1H-pyrrolizin-7a(5H)-yl)methoxy)quinazolin-7-yl)-1H-indol-4-yl)propanenitrile]
10 | 0.0001 to 10 | O=C1NCCN1CCOc1nc(N2C[C@H]3CC[C@@H](C2)N3)c2ccc(-c3cc(O)cc4ccccc34)c(F)c2n1 [P-0520, 1-(2-((4-((1R,5S)-3,8-diazabicyclo[3.2.1]octan-3-yl)-8-fluoro-7-(3-hydroxynaphthalen-1-yl)quinazolin-2-yl)oxy)ethyl)imidazolidin-2-one]
11 | 0.0001 to 10 | C#Cc1cccc2cccc(-c3ccc4c(N5C[C@H]6CC[C@@H](C5)N6)nc(OCC56CCCN5CCC6)nc4c3F)c12 [P-0521, 4-((1R,5S)-3,8-diazabicyclo[3.2.1]octan-3-yl)-7-(8-ethynylnaphthalen-1-yl)-8-fluoro-2-((tetrahydro-1H-pyrrolizin-7a(5H)-yl)methoxy)quinazoline]
12 | 0.0001 to 10 | CC(=O)c1cccc2cccc(-c3ccc4c(N5C[C@H]6CC[C@@H](C5)N6)nc(OCC56CCCN5CCC6)nc4c3F)c12 [P-0522, 1-(8-(4-((1R,5S)-3,8-diazabicyclo[3.2.1]octan-3-yl)-8-fluoro-2-((tetrahydro-1H-pyrrolizin-7a(5H)-yl)methoxy)quinazolin-7-yl)naphthalen-1-yl)ethan-1-one]
13 | 0.0001 to 10 | Cc1ccc2[nH]ncc2c1-c1c(Cl)cc2c(N3C[C@H]4CC[C@@H](C3)N4)nc(OCC34CCCN3CCC4)nc2c1F [P-0523, 4-((1R,5S)-3,8-diazabicyclo[3.2.1]octan-3-yl)-6-chloro-8-fluoro-7-(5-methyl-1H-indazol-4-yl)-2-((tetrahydro-1H-pyrrolizin-7a(5H)-yl)methoxy)quinazoline]
14 | 0.0001 to 10 | OCC(CO)COc1nc(N2C[C@H]3CC[C@@H](C2)N3)c2ccc(-c3cc(O)cc4ccccc34)c(F)c2n1 [P-0524, 2-(((4-((1R,5S)-3,8-diazabicyclo[3.2.1]octan-3-yl)-8-fluoro-7-(3-hydroxynaphthalen-1-yl)quinazolin-2-yl)oxy)methyl)propane-1,3-diol]
15 | 0.0001 to 10 | CC(CO)(CO)COc1nc(N2C[C@H]3CC[C@@H](C2)N3)c2ccc(-c3cc(O)cc4ccccc34)c(F)c2n1 [P-0525, 2-(((4-((1R,5S)-3,8-diazabicyclo[3.2.1]octan-3-yl)-8-fluoro-7-(3-hydroxynaphthalen-1-yl)quinazolin-2-yl)oxy)methyl)-2-methylpropane-1,3-diol]
16 | 0.0001 to 10 | Oc1cc(-c2ccc3c(N4C[C@H]5CC[C@@H](C4)N5)nc(N4CCC5(CCNC5)C4)nc3c2F)c2ccccc2c1 (stereo partly drawn) [P-0526, 4-(4-((1R,5S)-3,8-diazabicyclo[3.2.1]octan-3-yl)-8-fluoro-2-(2,7-diazaspiro[4.4]nonan-2-yl)quinazolin-7-yl)naphthalen-2-ol]
17 | 0.0001 to 10 | Oc1cc(-c2ccc3c(N4C[C@H]5CC[C@@H](C4)N5)nc(N4CCC5(CCOCC5)C4)nc3c2F)c2ccccc2c1 [P-0527, 4-(4-((1R,5S)-3,8-diazabicyclo[3.2.1]octan-3-yl)-8-fluoro-2-(8-oxa-2-azaspiro[4.5]decan-2-yl)quinazolin-7-yl)naphthalen-2-ol]
18 | 0.0001 to 10 | Oc1cc(-c2ccc3c(N4C[C@H]5CC[C@@H](C4)N5)nc(N4CCC5(CCOC5)C4)nc3c2F)c2ccccc2c1 (stereo partly drawn) [P-0528, 4-(4-((1R,5S)-3,8-diazabicyclo[3.2.1]octan-3-yl)-8-fluoro-2-(2-oxa-7-azaspiro[4.4]nonan-7-yl)quinazolin-7-yl)naphthalen-2-ol]
19 | 0.0001 to 10 | CNCC1(CC#N)CCN(c2nc(N3C[C@H]4CC[C@@H](C3)N4)c3ccc(-c4cc(O)cc5ccccc45)c(F)c3n2)C1 (stereo partly drawn) [P-0529, 2-(1-(4-((1R,5S)-3,8-diazabicyclo[3.2.1]octan-3-yl)-8-fluoro-7-(3-hydroxynaphthalen-1-yl)quinazolin-2-yl)-3-((methylamino)methyl)pyrrolidin-3-yl)acetonitrile]
20 | 0.0001 to 10 | CCN(CC)C1CCN(c2nc(N3C[C@H]4CC[C@@H](C3)N4)c3ccc(-c4cc(O)cc5ccccc45)c(F)c3n2)C1 (stereo partly drawn) [P-0530, 4-(4-((1R,5S)-3,8-diazabicyclo[3.2.1]octan-3-yl)-2-(3-(diethylamino)pyrrolidin-1-yl)-8-fluoroquinazolin-7-yl)naphthalen-2-ol]
21 | 0.0001 to 10 | CCNC1CCN(c2nc(N3C[C@H]4CC[C@@H](C3)N4)c3ccc(-c4cc(O)cc5ccccc45)c(F)c3n2)C1 (stereo partly drawn) [P-0531, 4-(4-((1R,5S)-3,8-diazabicyclo[3.2.1]octan-3-yl)-2-(3-(ethylamino)pyrrolidin-1-yl)-8-fluoroquinazolin-7-yl)naphthalen-2-ol]

Source: patent US20230081426A1, “COMPOUNDS AND METHODS FOR KRAS MODULATION AND INDICATIONS THEREFOR” (Plexxikon Inc., priority 2020, published 2023)
